Experimental data reported in US9232789B2, “Biostatic neutralizing composition for aqueous fluids” (ARKEMA FRANCE, priority 2010, dated 2016).

What was measured:
[1] = Test of neutralization (weight of amine necessary for neutralizing 100 g of oleic acid); type: physicochemical; details: for Amount necessary for neutralizing 100 g of oleic acid: weight of amine per 100 g of oleic acid
Experimental: The neutralizing capacity is evaluated by determining the weight of amine (in grams) necessary for neutralizing 100 g of oleic acid. In this example, the neutralizing capacities of the following products are compared: • Amine (1) alone: monoethanolamine (MEoA); • Amine (2) alone: n-heptyldiethanolamine ([…]); • Mixture of amine (1)+amine (2): 70% by weight of MEoA+30% by weight of […].

[2] = tested on: Pseudomonas aeruginosa and Staphylococcus aureus; test: Test of bacterial proliferation, bactericidal and/or bacteriostatic activity according to standard NF EN 1040; type: cell-based; set-up: key: +: low degree of reduction; ++++: high degree of reduction; details: surviving bacteria counted after 5 minutes contact at 20° C.
Experimental: A test is carried out in order to evaluate the bactericidal and/or bacteriostatic activity of a sample of the composition of the invention, according to the standard NF EN 1040 (April 2006). A sample of a composition as it is (maximum concentration of the test: 80%) and/or diluted with water is added to a test suspension of bacteria (Pseudomonas aeruginosa and Staphylococcus aureus). The mixture is maintained at 20° C. for 5 minutes. An aliquote portion is removed at the end of this contact time; the bactericidal and/or bacteriostatic activity in this withdrawal is immediately neutralized or suppressed according to a validated method. The method used preferably is the dilution-neutralization method. Filtration over a membrane is used when it is not possible to find a suitable neutralizer. The surviving bacteria in each sample are counted, which makes it possible to calculate the degree of reduction, denoted by “+” (low degree of reduction) to “++++” (high degree of reduction) in table 2 below: […]

[3] = type: physicochemical
Text: In this example, the following two amines are considered: • Amine (1) alone: methyldiethanolamine (MDEoA); • Amine (2) alone: n-heptyldiethanolamine (C7DEoA).
The appended FIG. 1 represents a ternary phase diagram between these 2 amines and water. The percentages are expressed by weight. The miscible mixtures are denoted by points (●), the immiscible mixtures are denoted by crosses (X).
The C7DEoA/water binary mixture is not miscible in all proportions. There is immiscibility when the C7DEoA is found in an amount of greater than 50%. In the area of immiscibility (amount of C7DEoA greater than 50%), the MDEoA acts as a coupling agent (co-solvent) when it is present in a content of greater than 15%.

Compound | Amount necessary for neutralizing 100 g of oleic acid [1] | Degree of reduction [2] | neutralizing capacity (in words) ([1]; oleic acid neutralization) | amount of C7DEoA in C7DEoA/water binary mixture at which there is immiscibility [3]
NCCO [MEoA, monoethanolamine, reference compound] | 6.8 g | + |  | 
n-heptyldiethanolamine [Composition C7DEoA] | 36 g | ++++ | much lower | greater than 50%
